What was measured:
[1] = solubility limit / achievable concentration in water; assay type: physicochemical
[2] = saturation concentration of aqueous solutions, L-enantiomer versus D,L-racemate; assay type: physicochemical; conditions: aqueous solution
Text: The L-enantiomer of α-alanine is available at low cost and leads, through Strecker synthesis, as a result of reaction with hydrocyanic acid and formaldehyde in aqueous solution, to L-α-alanine-N,N-diacetonitrile, and saponification thereof with a base leads to aqueous solutions which not only have a higher saturation concentration of the L-enantiomer compared to the D,L-racemate of the MGDA trialkali metal salts, but which also produce a readily crystallizing solid by means of crystallization.

Row | Compound | solubility limit [1] | solubility compared to the racemate [2]
1 | C[C@H](N)C(=O)O [α-alanine] | ca. 18 % by weight | –
2 | methylglycine-N,N-diacetic acid trialkali metal salt [L-MGDA trialkali metal salt] | – | higher

Source: patent publication US8802894B2, “Process for the preparation of aqueous solutions of methylglycine-N,N-diacetic acid trialkali metal salts” (BASF SE, priority 2012, dated 2014)
